This note sets out measurements from US4835253A, “Specific inhibitors of tissue kallikrein” (The University Hospital, priority 1987, dated 1989).

Holding throughout (type): biochemical
Assay [1] addresses T1, Human urinary kallikrein (Homo sapiens, UniProt P06870).
T1 construct: Human urinary kallikrein (hereinafter "HUK") was highly purified using a modification of published methods; from tissue; host or cells: human urine
In words: KI determination: inhibition of HUK cleavage of chromogenic substrate S-2266. Conditions: HUK, substrate S-2266, pH 9.0, 37 C; read-out: KI. As to the method:
(§1) Human urinary kallikrein (hereinafter "HUK") was highly purified using a modification of published methods that employ ultrafiltration, aprotinin-CH-sepharose affinity chromatography, and Sephadex G-100 gel filtration [ole-MoiYoi et al., Proc. Natl. Acad. Sci. USA 76: 3121-3125 (1979)]. […] The pH of each fraction was determined immediately upon elution, and the fraction was neutralized by addition of 2.0 ml of 2M Tris-HCL buffer (pH 8.0).
KI Determinations: KI measurements were performed using a HP8450A diode array spectrophotometer (Hewlett Packard; Palo Alto, Calif.) attached to a Model 216 computer using the multi-component assay program modified to allow simultaneous determination of reaction velocity in four samples. Dixon plots were used to data reduction and for calculation of […]. […] Inhibition of biologically active kinin from LMW-kininogen was done at pH 7.7 and 37 C.
Procedurally, the KI values for the preliminary analogue inhibitors reported previously [Okunishi et al., Hypertension 7 (Suppl. I): I-72-I-75 (1985)] were determined by adding the chromogenic substrate S-2266 comprising D-Val-Leu-Arg-4-nitroaniline to a mixture of the analogue inhibitor and the HUK.
Initially, the inhibitor constant (KI) for each of these novel inhibitor compositions was determined using purified HUK and the tripeptide nitroanilide, S-2266. The ability to inhibit hydrolysis of the S-2266 substrate was performed in 50 mM tris-HCL buffer (pH 9.0) at 37 C. Subsequently, the ability of these novel inhibitors to inhibit human plasma kallikrein and bovine pancreatic trypsin were similarly examined using the specific substrates H-D-Pro-Phe-Arg-p-nitroanilide (S-2302) and Glu-Gly-Arg-p-nitroanilide (S-2444) respectively. The degradation products of each series was purified by HPLC and quantified by liquid scintillation counting as previously described.

Assay [2] has as its target T1, Human urinary kallikrein. In words: KM determination: hydrolysis of substrate analogues by HUK (HPLC, scintillation counting). Conditions: hydrolysis by HUK; kininogen = 1.0. As to the method:
as §1
KM Determination: Hydrolysis of the substrate analogue inhibitors by HUK was measured by combining the test inhibitor at different concentrations on either side of the KM value with the enzyme at pH 9.0 for thirty minutes at 37 C. The cleavage products were separated from the starting material in the digest by HPLC on a Beckman octadecylsilane (ODS) column (1×25 cm) using a thirty minute gradient of from 0-70% CH3 CN in triethylammonium phosphate buffer (pH 7.0). The starting materials and reaction products were completely resolved under these conditions. Absorbance of the HPLC effluent was monitored at 220 nm. Individual fractions were collected and the amount of peptide degradation products was quantitated by counting in a liquid scintillation counter. Samples containing individual inhibitors were incubated without HUK and solvent blanks were also chromatographed and analyzed in the same way.
For test purposes, in these HUA cleavage studies, individual peptide sequences were synthesized, purified, and characterized as previously described herein. For these cleavage studies, doubly labelled peptides were prepared using [^3 H]-valine and […] respectively. In addition, 6.0N HCL-dioxane was used for removal of tert-butoxycarbonyl protecting groups and 90% hydrogen fluoride/10% anisole (volume/volume) for global deprotection on completion of the synthesis. After extraction and gel filtration on Sephadex G-15, final purification was completed by isocratic elution from a synchrom RP-P column (2.1×25 cm) with CH3 CN--H2 O (8 ml/min). The resultant peptides were deemed to be homogeneous by amino acid analysis; high performance liquid chromatography; thin layer chromatography; and A230 /A260 ratio analysis. […]

Assay [3] has as its target T1, Human urinary kallikrein. In words: IC50 of tripeptide 4-nitroanilides against HUK cleavage of S-2266. As to conditions: S-2266, 4.0 ng HUK, 37 C, pH 9.0. The source says: An evaluation of other possible peptide sequences and their potential effect as substrate analogue inhibitors specifically of tissue kallikrein was undertaken using chromogenic substrates comprising alternate series of tripeptide 4-nitroanilides using previously described methods [Amundsen et al., "Methods For The Determination Of Glandular Kallikrein By Means Of A Chromogenic Tripeptide Substrate," in Kinins-II. Part A. Plenum Press, 1979, pages 83-95]. This methodology relies on the capacity of HUK to cleave p-nitroaniline from specifically synthesized tripeptide 4-nitroanilines. Controls for this experimental series included S-2266 comprising D-Val-Leu-Arg-4NA; S-2444 comprising D-Glu-Gly-Arg-4NA; and S-2302 comprising D-Pro-Phe-Arg-4NA respectively. The 50% inhibitory concentration (IC50) values for each synthesized tripeptide 4-nitroanilide was determined at 37 C. at pH 9.0 using the specific kallikrein substrates S-2266 (Kabi, Helena Laboratories, Beaumont, Tex.). 4.0 nanograms (hereinafter "ng") of HUK were used in each sample. Blanks lacking S-2266 were run in parallel to correct for hydrolysis of all samples. In all cases, the amount of 4-nitroaniline generated from each tripeptide was less than 10% of that observed for the hydrolysis of S-2266.

Several values for one entry are separate records, joined by “and”; a condition that tells them apart may be missing. Equal entries are not always repeated. Non-standard residues stand in square brackets, D forms with d. Residues, ends and D or L forms follow the SMILES beside them. *: point of attachment. Cha = N[C@@H](CC1CCCCC1)C(=O)O; dChg = N[C@@H](C(=O)O)C1CCCCC1; dPhg = N[C@@H](C(=O)O)c1ccccc1; pNA = O=[N+]([O-])c1ccc(N*)cc1; Chg = N[C@H](C(=O)O)C1CCCCC1

T1 sequence (P06870 25-262): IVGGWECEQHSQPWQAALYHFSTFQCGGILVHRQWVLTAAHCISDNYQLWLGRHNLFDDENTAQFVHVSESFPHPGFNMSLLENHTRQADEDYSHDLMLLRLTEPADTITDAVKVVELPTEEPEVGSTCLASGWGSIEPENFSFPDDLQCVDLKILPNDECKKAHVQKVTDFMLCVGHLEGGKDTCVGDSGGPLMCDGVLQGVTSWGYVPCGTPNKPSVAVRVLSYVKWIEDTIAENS

In general, Ki refers to a measure of affinity in units of concentration, obtained from inhibition or displacement. Consider `CC(=O)N[C@@H](Cc1ccccc1)C(=O)N[C@@H](CCCN=C(N)N)C(=O)N[C@@H](CO)C(=O)N[C@H](C(=O)N[C@@H](CCC(N)=O)C(N)=O)C(C)C` [KKI-4, Ac--Phe--Arg--Ser--Val--Gln--NH2, reference compound] (Ac-FRSVQ-NH2), for which the Ki at Human urinary kallikrein [1] came out at 35 µM.
Regarding `CC(=O)N[C@@H](CO)C(=O)N1CCC[C@H]1C(=O)N[C@@H](Cc1ccccc1)C(=O)N[C@@H](CCCNC(=N)N)C(=O)N[C@@H](CO)C(=O)N[C@H](C(=O)N[C@@H](CCC(N)=O)C(N)=O)C(C)C` [KKI-6, Ac--Ser--Pro--Phe--Arg--Ser--Val--Gln--NH2, reference compound] (Ac-SPFRSVQ-NH2), the Ki at Human urinary kallikrein [1] turned out to be 73 µM. The “RELATIVE SPECIFICITY” value on Human urinary kallikrein [2] was 45.4.
For orientation: IC50 means the concentration needed to halve the response being measured. Molecule `CC[C@H](C)[C@H](N)C(=O)N[C@@H](CC1CCCCC1)C(=O)N[C@@H](CCCNC(=N)N)C(=O)Nc1ccc([N+](=O)[O-])cc1` [L-Ile--Cha--Arg--4NA] (H-Ile-[Cha]-Arg-pNA) yielded a 50% inhibitory concentration (IC50) on Human urinary kallikrein [3] of 10.5 µM.
Same read-out and setting: for `CC(C)C[C@H](NC(=O)[C@@H](N)C1CCCCC1)C(=O)N[C@@H](CCCNC(=N)N)C(=O)Nc1ccc([N+](=O)[O-])cc1` [L-Chg--Leu--Arg--4NA] (H-[Chg]-Leu-Arg-pNA) the value was 18.7 µM; for `N=C(N)NCCC[C@H](NC(=O)[C@H](Cc1ccccc1)NC(=O)[C@H](N)C1CCCCC1)C(=O)Nc1ccc([N+](=O)[O-])cc1` [D-Chg--Phe--Arg--4NA] (H-[dChg]-Phe-Arg-pNA), 3.7 µM.
As to `N=C(N)NCCC[C@H](NC(=O)[C@H](CC1CCCCC1)NC(=O)[C@H](N)c1ccccc1)C(=O)Nc1ccc([N+](=O)[O-])cc1` [D-0Gly--Cha--Arg--4NA] (H-[dPhg]-[Cha]-Arg-pNA), the IC50 at Human urinary kallikrein [3] worked out at 7.4 µM.
Still for that read-out and setting: for `N=C(N)NCCC[C@H](NC(=O)[C@H](CC1CCCCC1)NC(=O)[C@@H](N)C1CCCCC1)C(=O)Nc1ccc([N+](=O)[O-])cc1` [L-Chg--Cha--Arg--4NA] (H-[Chg]-[Cha]-Arg-pNA) the value was 11.5 µM.
Consider `CC(=O)N1CCC[C@H]1C(=O)N[C@@H](Cc1ccccc1)C(=O)N[C@@H](CCCNC(=N)N)C(=O)N[C@@H](CO)C(=O)N[C@H](C(=O)N[C@@H](CCC(N)=O)C(N)=O)C(C)C` [KKI-5, Ac--Pro--Phe--Arg--Ser--Val--Gln--NH2, reference compound] (Ac-PFRSVQ-NH2), for which, on Human urinary kallikrein [1], the Ki was 156 µM and 136 µM. In addition, at Human urinary kallikrein [2], the “RELATIVE SPECIFICITY” value is listed as 3.2.
For `CC(=O)N[C@@H](Cc1ccccc1)C(=O)N[C@@H](CCCNC(=N)N)C(=O)N[C@@H](CO)C(=O)N[C@H](C(=O)N[C@@H](CCC(N)=O)C(N)=O)C(C)C` [KKI-4, Ac--Phe--Arg--Ser--Val--Gln--NH2, reference compound] (Ac-FRSVQ-NH2), on Human urinary kallikrein [2], the “RELATIVE SPECIFICITY” value is on record as 4.2.
On Human urinary kallikrein [3], `NCCCC[C@H](NC(=O)[C@H](CC1CCCCC1)NC(=O)[C@H](N)c1ccccc1)C(=O)Nc1ccc([N+](=O)[O-])cc1` [D-0Gly--Cha--Lys--4NA] (H-[dPhg]-[Cha]-Lys-pNA) displayed an IC50 above 200 µM.
Still for that read-out and setting: for `NCCCC[C@H](NC(=O)[C@H](CC1CCCCC1)NC(=O)[C@H](N)C1CCCCC1)C(=O)Nc1ccc([N+](=O)[O-])cc1` [D-Chg--Cha--Lys--4NA] (H-[dChg]-[Cha]-Lys-pNA) the value was 150 µM.
